The test system of data set [1] is Pythium ultimum. The experiment in a line: Mycelium growth inhibition on PDA (Example 7). In kind it is cell-based. The note with it: 3 days at 25° C; for Average mycelium diameter: n = 4. How it is done:
(§1) Strains used for this trial were kept and refreshed on Potato Dextrose Agar (PDA) at 25° C.
(§2) To begin, a quantity of test product was directly added in a certain volume of PDA (about 20 mL/petri dish) (Table 11). Plugs of agar (diameter 10 mm) from one week-old cultures were placed at the centre of the PDA plates. Each object was performed in 4 repetitions. The petri dishes were then incubated at 25° C. in the dark. After 3 and 6 days of incubation, the diameter of the colonies was measured in 2 perpendicular directions. The percentage of inhibition was calculated for each product/concentration compare to the untreated.

The test system of data set [2] is Rhizoctonia solani. In words: Mycelium growth inhibition on PDA (Example 7). In kind it is cell-based. To be noted: 3 days at 25° C; for Average mycelium diameter: n = 4. As for the experimental part:
as §1, §2

The subject of data set [3] is Sclerotinia sclerotiorum. The experiment in a line: Mycelium growth inhibition on PDA (Example 7). In kind it is cell-based. To be noted: 3 days at 25° C; for Average mycelium diameter: n = 4. As for the experimental part:
as §1, §2

Data set [4] has as its system Sclerotinia minor. The experiment in a line: Mycelium growth inhibition on PDA (Example 7). The note with it: 3 days at 25° C; for Average mycelium diameter: n = 4. In kind it is cell-based. As for the experimental part:
as §1, §2

The subject of data set [5] is Botrytis cinerea. In words: Mycelium growth inhibition on PDA (Example 7). Format: cell-based. The note with it: 3 days at 25° C; for Average mycelium diameter: n = 4. As for the experimental part: as §1, §2
In data set [6] the test system is Phytophthora infestans strain 1813E11. In kind it is in vivo. To be noted: 100 ppm.
Data set [7] relates to Plasmopara viticola. The experiment in a line: Plasmopara viticola grapevine leaf disc test. In kind it is in vivo. To be noted: copper hydroxide 2 g/L, preventive spray; 7 days after the artificial inoculation. How it is done:
A stock solution of choline pelargonate (29.1% PLA and 40.4% Choline hydroxide, pH 8.82) was made by mixing 14.55 mL PLA with 15.25 mL distilled water and afterwards the addition of 20.2 mL of Choline hydroxide. The choline pelargonate stock solution (42.04%) was diluted in order to create a solution with a final concentration of choline pelargonate equal to 1 mL/L and 10 mL/L. The two choline pelargonate solutions, water as negative control and copper hydroxide (2 g/L) as positive control were used for this test. For each object 4 Petri plates were prepared and each plate contains 5 grapevine leaf discs (see Table 8 below).
Leaf discs preparation: leaf discs (diameter 19 mm) were prepared from grapevine cuttings (variety Pinot Nero Entav 115) using the young leaves. 5 leaf discs were placed in each Petri Plate on autoclaved paper (4 layers), the paper was previously wetted by adding 8.5 mL of sterile water in each plate. The leaf discs were placed on the paper with the abaxial side upward.
Test products application and pathogen inoculation: leaf discs were treated with the test products at 11.30 A.M (i.e. a preventive application) and the leaves were allowed to dry. The products were sprayed with a small hand sprayer; 5 sprays were applied on each plate. The same day at 16.30 a suspension of P. viticola spores at final concentration of 2*10^5 spore/mL was applied (5 hours after test product application) on the leaf discs. The inoculated plates were incubated overnight in the dark at 25° C. The following day, the leaf discs were dried under the laminar flow and then placed back at 25° C. The disease assessment was done 7 days after the artificial inoculation.

The subject of data set [8] is lettuce plants. The experiment in a line: Phytotoxicity on lettuce plants after spraying. Format: in vivo. The note with it: 2.5% pelargonic acid, sprayed until run-off, n = 6, scale 0 to 100%. As for the experimental part: A neutralization reaction was made with pelargonic acid (>97%) and choline hydroxide (45%) based on the titration curve (FIG. 1). Based on the titration curve, a stock solution of choline pelargonate (29.1% PLA (>97%) and 40.4% Choline hydroxide (45%)) was made by mixing 14.55 mL pelargonic acid with 15.25 mL distilled water and afterwards the addition of 20.2 mL choline hydroxide. The choline pelargonate stock solution was diluted in distilled water to obtain a diluted choline pelargonate composition comprising about 2.5% pelargonic acid. The total concentration of choline pelargonate in the water spray solution was 37.08 g a.i./L (a.i.=active ingredient).
The next step was to assess the phytotoxicity of a composition comprising choline pelargonate on lettuce plants. As a control, plants were treated with water. The plants were also treated with a diluted pelargonic acid composition, including a diluted pelargonic acid solution based on the commercial product Beloukha (Belchim Crop Protection).
Lettuce plants were sprayed with a small hand sprayer until run-off with the respective compositions and incubated at 20° C. Each composition was tested with a setup consisting out of six plants. A visual assessment was made on lettuce plants after spraying. The effect of phytotoxicity (necrosis or discolouration) was scored by a scale from 0 to 100%, with 0% no phytotoxicity and 100% fully phytotoxicity on plants.

The text below walks through data of patent US12446577B2 (priority 2018, dated 2025).

Consider `CCCCCCCC(=O)[O-].C[N+](C)(C)CCO` [TMAO, choline octanoate], for which the “% efficacy compared to control (Abbott)” value was 100% in data set [1] (0.042% a.i. in PDA); 100% in data set [1] (0.42% a.i. in PDA); 64% in data set [2] (0.042% a.i. in PDA); 100% in data set [2] (0.42% a.i. in PDA); 98% in data set [3] (0.042% a.i. in PDA); 100% in data set [3] (0.42% a.i. in PDA). For the same compound, the “% efficacy compared to control (Abbott)” value in data set [4] (0.042% a.i. in PDA) came to 96%; in data set [4] (0.42% a.i. in PDA) it was 100%; in data set [5] (0.042% a.i. in PDA), 72%; in data set [5] (0.42% a.i. in PDA), 100%. The Average mycelium diameter is on record as 0.0 ± 0.0 mm in data set [1] (0.042% a.i. in PDA); 0.0 ± 0.0 mm in data set [1] (0.42% a.i. in PDA); 18.9 ± 3.8 mm in data set [2] (0.042% a.i. in PDA); 0.0 ± 0.0 mm in data set [2] (0.42% a.i. in PDA); 1.3 ± 0.3 mm in data set [3] (0.042% a.i. in PDA); 0.0 ± 0.0 mm in data set [3] (0.42% a.i. in PDA). Moreover, the Average mycelium diameter is on record as 2.5 ± 2.9 mm in data set [4] (0.042% a.i. in PDA), 0.0 ± 0.0 mm in data set [4] (0.42% a.i. in PDA), 12.1 ± 11.0 mm in data set [5] (0.042% a.i. in PDA) and 0.0 ± 0.0 mm in data set [5] (0.42% a.i. in PDA).
Consider `O=[N+]([O-])c1cc(C(F)(F)F)c(Cl)c([N+](=O)[O-])c1Nc1ncc(C(F)(F)F)cc1Cl` [Fluazinam], for which the “Disease severity (%) on potato leaf discs, Mean” value in data set [6] (mean of 5 leaf discs, six days after inoculation) came to 0%. Besides, in data set [6] (potato leaf discs), the efficacy is 100%. In addition, in data set [6] (single leaf discs a-e, six days after inoculation), the “Disease severity (%) on potato leaf discs” value is given as 0%.
Take `CCCCCCCCCC(=O)[O-].C[N+](C)(C)CCO` [TMAD, choline decanoate]: the “% efficacy compared to control (Abbott)” value in data set [1] (0.042% a.i. in PDA) amounted to 100%; in data set [1] (0.42% a.i. in PDA) it was 100%; in data set [2] (0.042% a.i. in PDA), 48%; in data set [2] (0.42% a.i. in PDA) it was 99%; in data set [3] (0.042% a.i. in PDA), 97%; in data set [3] (0.42% a.i. in PDA), 100%. Also, the “% efficacy compared to control (Abbott)” value is 98% in data set [4] (0.042% a.i. in PDA), 99% in data set [4] (0.42% a.i. in PDA), 84% in data set [5] (0.042% a.i. in PDA) and 95% in data set [5] (0.42% a.i. in PDA). The Average mycelium diameter is recorded as 0.0 ± 0.0 mm in data set [1] (0.042% a.i. in PDA); 0.0 ± 0.0 mm in data set [1] (0.42% a.i. in PDA); 27.3 ± 6.9 mm in data set [2] (0.042% a.i. in PDA); 0.4 ± 0.8 mm in data set [2] (0.42% a.i. in PDA); 2.1 ± 1.7 mm in data set [3] (0.042% a.i. in PDA); 0.0 ± 0.0 mm in data set [3] (0.42% a.i. in PDA). The Average mycelium diameter in data set [4] (0.042% a.i. in PDA) turned out to be 1.5 ± 1.8 mm; in data set [4] (0.42% a.i. in PDA), 0.5 ± 0.6 mm; in data set [5] (0.042% a.i. in PDA) it was 7.0 ± 10.7 mm; in data set [5] (0.42% a.i. in PDA) it was 2.0 ± 4.0 mm.
`[Cu+2].[OH-].[OH-]` [copper, copper hydroxide, reference compound]: the “disease symptoms on the leaf discs” value in data set [7] is “did not show any disease symptoms”.
With `CCCCCCCCC(=O)O` [Pelargonic acid, pelargonic acid, reference compound], the “Phytotoxicity (%) evaluation on lettuce plants” value in data set [8] (0 DAA) was 0.00%; in data set [8] (1 DAA) it was 60.00%; in data set [8] (2 DAA) it was 60.83%; in data set [8] (7 DAA), 70.00%.
